Experiments:
h-GABA-A α5β3γ2 [1] = molecular target: T1, h-GABA-A α5β3γ2 (Homo sapiens (Human), UniProt P18507+P31644); assay: Two-electrode voltage clamp electrophysiology in Xenopus oocytes expressing GABAA receptors, modulation of GABA EC20 current; format: cell-based; conditions: Xenopus oocytes; for Efficacy (GABA) %: % modulation of GABA EC20 = 100*(Fold increase−1); for Fold increase h-GABA-A α5β3γ2 oocyte: GABA EC20, test compound at approx. 30 fold its Ki
Procedure, shortened: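 Values are % modulation of an EC20 GABA response, derived point by point from the ratio of compound-exposed versus control current traces (extremum taken, 100×(fold−1)). Recordings used oocytes injected with human α5, β3, γ2 mRNA, clamped at −80 mV at room temperature, at least 3 oocytes each.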

h-GABA-A α5β3γ2 [2] = molecular target: T1, h-GABA-A α5β3γ2; assay: [3H]flumazenil competition binding assay, membranes of HEK293 cells expressing human GABAA receptors; conditions: displacement of [3H]flumazenil 0.5 nM, HEK293 cells expressing human receptors, mean of two determinations; read-out: Ki h-GABA-A α5β3γ2
Procedure, shortened: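 Displacement of [3H]flumazenil from membranes of HEK293 cells transiently expressing human α5β3γ2 receptors, in Krebs-tris buffer pH 7.5. Incubation to equilibrium, 1 h at 4° C., then filtration and scintillation counting. Ki is the mean of two determinations.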

Compound: Cc1ccc(-c2noc(C(F)F)c2COc2ccc(C(=O)NC3CCOCC3)cn2)cn1 [Example 126, 6-((5-(difluoromethyl)-3-(6-methyl-3-pyridyl)isoxazol-4-yl)methoxy)-N-tetrahydropyran-4-yl-pyridine-3-carboxamide]
- Efficacy (GABA) % (h-GABA-A α5β3γ2 [1]): 49%
- Fold increase h-GABA-A α5β3γ2 oocyte (h-GABA-A α5β3γ2 [1]): 1.49
- Ki (h-GABA-A α5β3γ2 [2]): 49.8 nM

Compound: Cc1ccc(-c2noc(C)c2COc2ccc(C(=O)N[C@H]3CCOC[C@@H]3O)cn2)cn1 [Example 127, N-((3R,4S)-3-hydroxytetrahydropyran-4-yl)-6-((5-methyl-3-(6-methyl-3-pyridyl)isoxazol-4-yl)methoxy)pyridine-3-carboxamide]
- Efficacy (GABA) % (h-GABA-A α5β3γ2 [1]): 50%
- Fold increase h-GABA-A α5β3γ2 oocyte (h-GABA-A α5β3γ2 [1]): 1.5
- Ki (h-GABA-A α5β3γ2 [2]): 22.8 nM

Compound: Cc1onc(-c2ccc(C3CC3)nc2)c1COc1ccc(C(=O)NC2CCOCC2)cn1 [Example 128, 6-((3-(6-cyclopropyl-3-pyridyl)-5-methyl-isoxazol-4-yl)methoxy)-N-tetrahydropyran-4-yl-pyridine-3-carboxamide]
- Efficacy (GABA) % (h-GABA-A α5β3γ2 [1]): 107%
- Fold increase h-GABA-A α5β3γ2 oocyte (h-GABA-A α5β3γ2 [1]): 2.07
- Ki (h-GABA-A α5β3γ2 [2]): 6.1 nM

Compound: CCC[C@@H](CO)NC(=O)c1ccc(OCc2c(-c3ccc(C4CC4)nc3)noc2C)nc1 [Example 129, 6-((3-(6-cyclopropyl-3-pyridyl)-5-methyl-isoxazol-4-yl)methoxy)-N-((1S)-1-(hydroxymethyl)butyl)pyridine-3-carboxamide]
- Efficacy (GABA) % (h-GABA-A α5β3γ2 [1]): 156%
- Fold increase h-GABA-A α5β3γ2 oocyte (h-GABA-A α5β3γ2 [1]): 2.56
- Ki (h-GABA-A α5β3γ2 [2]): 25.6 nM

Compound: Cc1onc(-c2ccc(C3CC3)nc2)c1COc1ccc(C(=O)NC2CCS(=O)(=O)CC2)cn1 [Example 130, 6-((3-(6-cyclopropyl-3-pyridyl)-5-methyl-isoxazol-4-yl)methoxy)-N-(1,1-dioxothian-4-yl)pyridine-3-carboxamide]
- Efficacy (GABA) % (h-GABA-A α5β3γ2 [1]): 128%
- Fold increase h-GABA-A α5β3γ2 oocyte (h-GABA-A α5β3γ2 [1]): 2.28
- Ki (h-GABA-A α5β3γ2 [2]): 30.4 nM

Compound: Cc1ccc(-c2noc(C)c2COc2ccc(C(=O)N[C@@H]3CCCC(F)(F)[C@H]3O)cn2)cn1 [Example 131, N-((1R,2S)-3,3-difluoro-2-hydroxycyclohexyl)-6-((5-methyl-3-(6-methylpyridin-3-yl)isoxazol-4-yl)methoxy)pyridine-3-carboxamide]
- Efficacy (GABA) % (h-GABA-A α5β3γ2 [1]): 51%
- Fold increase h-GABA-A α5β3γ2 oocyte (h-GABA-A α5β3γ2 [1]): 1.51
- Ki (h-GABA-A α5β3γ2 [2]): 26 nM

Compound: Cc1ccc(-c2noc(C)c2COc2ccc(C(=O)N[C@@H]3CCCC[C@H]3O)cn2)cn1 [Example 132, N-((1R,2R)-2-hydroxycyclohexyl)-6-((5-methyl-3-(6-methylpyridin-3-yl)isoxazol-4-yl)methoxy)pyridine-3-carboxamide]
- Efficacy (GABA) % (h-GABA-A α5β3γ2 [1]): 64%
- Fold increase h-GABA-A α5β3γ2 oocyte (h-GABA-A α5β3γ2 [1]): 1.64
- Ki (h-GABA-A α5β3γ2 [2]): 37.7 nM

Compound: Cc1ccc(-c2noc(C)c2COc2ccc(C(=O)N[C@H]3CCCC(F)(F)[C@@H]3O)cn2)cn1 [Example 133, N-((1S,2R)-3,3-difluoro-2-hydroxycyclohexyl)-6-((5-methyl-3-(6-methylpyridin-3-yl)isoxazol-4-yl)methoxy)pyridine-3-carboxamide]
- Efficacy (GABA) % (h-GABA-A α5β3γ2 [1]): 95%
- Fold increase h-GABA-A α5β3γ2 oocyte (h-GABA-A α5β3γ2 [1]): 1.95
- Ki (h-GABA-A α5β3γ2 [2]): 43.1 nM

Compound: Cc1ccc(-c2noc(C)c2COc2ccc(C(=O)N[C@@H]3CCOC[C@H]3O)cn2)cn1 [Example 134, N-((3S,4R)-3-hydroxytetrahydro-2H-pyran-4-yl)-6-((5-methyl-3-(6-methylpyridin-3-yl)isoxazol-4-yl)methoxy)pyridine-3-carboxamide]
- Efficacy (GABA) % (h-GABA-A α5β3γ2 [1]): 66%
- Fold increase h-GABA-A α5β3γ2 oocyte (h-GABA-A α5β3γ2 [1]): 1.66
- Ki (h-GABA-A α5β3γ2 [2]): 20.8 nM

Compound: Cc1ccc(-c2noc(C)c2COc2ccc(C(=O)N[C@H]3CCCC[C@@H]3O)cn2)cn1 [Example 135, N-((1S,2S)-2-hydroxycyclohexyl)-6-((5-methyl-3-(6-methylpyridin-3-yl)isoxazol-4-yl)methoxy)pyridine-3-carboxamide]
- Efficacy (GABA) % (h-GABA-A α5β3γ2 [1]): 92%
- Fold increase h-GABA-A α5β3γ2 oocyte (h-GABA-A α5β3γ2 [1]): 1.92
- Ki (h-GABA-A α5β3γ2 [2]): 30.4 nM

Compound: CNC(=O)c1ccc(OCc2c(-c3ccc(C)nc3)noc2C)nc1F [Example 136, 2-fluoro-N-methyl-6-((5-methyl-3-(6-methylpyridin-3-yl)isoxazol-4-yl)methoxy)pyridine-3-carboxamide]
- Efficacy (GABA) % (h-GABA-A α5β3γ2 [1]): 54%
- Fold increase h-GABA-A α5β3γ2 oocyte (h-GABA-A α5β3γ2 [1]): 1.54
- Ki (h-GABA-A α5β3γ2 [2]): 14.8 nM

Compound: COc1ccc(-c2noc(C)c2COc2ccc(C(=O)NC3CCOCC3)cn2)cn1 [Example 137, 6-((3-(6-methoxypyridin-3-yl)-5-methylisoxazol-4-yl)methoxy)-N-tetrahydropyran-4-yl-pyridine-3-carboxamide]
- Efficacy (GABA) % (h-GABA-A α5β3γ2 [1]): 55%
- Fold increase h-GABA-A α5β3γ2 oocyte (h-GABA-A α5β3γ2 [1]): 1.55
- Ki (h-GABA-A α5β3γ2 [2]): 25.4 nM

Compound: COc1ccc(-c2noc(C)c2COc2ccc(C(=O)NC(C)C)cn2)cn1 [Example 138, N-isopropyl-6-((3-(6-methoxypyridin-3-yl)-5-methylisoxazol-4-yl)methoxy)pyridine-3-carboxamide]
- Efficacy (GABA) % (h-GABA-A α5β3γ2 [1]): 46%
- Fold increase h-GABA-A α5β3γ2 oocyte (h-GABA-A α5β3γ2 [1]): 1.46
- Ki (h-GABA-A α5β3γ2 [2]): 93.8 nM

Compound: CCC[C@@H](CO)NC(=O)c1ccc(OCc2c(-c3ccc(OC)nc3)noc2C)nc1 [Example 139, (S)—N-(1-hydroxypentan-2-yl)-6-((3-(6-methoxypyridin-3-yl)-5-methylisoxazol-4-yl)methoxy)pyridine-3-carboxamide]
- Efficacy (GABA) % (h-GABA-A α5β3γ2 [1]): 152%
- Fold increase h-GABA-A α5β3γ2 oocyte (h-GABA-A α5β3γ2 [1]): 2.52
- Ki (h-GABA-A α5β3γ2 [2]): 19.4 nM

Compound: COc1ccc(-c2noc(C)c2COc2ccc(C(=O)N3CCS(=O)(=O)CC3)cn2)cn1 [Example 140, (1,1-dioxidothiomorpholino)(6-((3-(6-methoxypyridin-3-yl)-5-methylisoxazol-4-yl)methoxy)pyridin-3-yl)methanone]
- Efficacy (GABA) % (h-GABA-A α5β3γ2 [1]): 13%
- Fold increase h-GABA-A α5β3γ2 oocyte (h-GABA-A α5β3γ2 [1]): 1.13
- Ki (h-GABA-A α5β3γ2 [2]): 56 nM

Compound: CCC[C@@H](CO)NC(=O)c1ccc(OCc2c(-c3ccc(N(C)C)nc3)noc2C)nc1 [Example 141, (S)-6-((3-(6-(dimethylamino)pyridin-3-yl)-5-methylisoxazol-4-yl)methoxy)-N-(1-hydroxypentan-2-yl)nicotinamide]
- Efficacy (GABA) % (h-GABA-A α5β3γ2 [1]): 243%
- Fold increase h-GABA-A α5β3γ2 oocyte (h-GABA-A α5β3γ2 [1]): 3.43
- Ki (h-GABA-A α5β3γ2 [2]): 49.5 nM

Compound: COc1cc(OCc2c(-c3ccc(C)nc3)noc2C)ncc1C(=O)NC1CCOCC1 [Example 142, 4-methoxy-6-((5-methyl-3-(6-methylpyridin-3-yl)isoxazol-4-yl)methoxy)-N-(tetrahydropyran-4-yl)nicotinamide]
- Efficacy (GABA) % (h-GABA-A α5β3γ2 [1]): 44%
- Fold increase h-GABA-A α5β3γ2 oocyte (h-GABA-A α5β3γ2 [1]): 1.44
- Ki (h-GABA-A α5β3γ2 [2]): 4.7 nM

Compound: Cc1ncc(-c2noc(C)c2COc2ccc(C(=O)NC3CCOCC3)cn2)cc1F [Example 143, 6-((3-(5-fluoro-6-methyl-3-pyridyl)-5-methyl-isoxazol-4-yl)methoxy)-N-tetrahydropyran-4-yl-pyridine-3-carboxamide]
- Efficacy (GABA) % (h-GABA-A α5β3γ2 [1]): 20%
- Fold increase h-GABA-A α5β3γ2 oocyte (h-GABA-A α5β3γ2 [1]): 1.2
- Ki (h-GABA-A α5β3γ2 [2]): 14.5 nM

Compound: Cc1ncc(-c2noc(C)c2COc2ccc(C(=O)NC(C)C)cn2)cc1F [Example 144, 6((3-(5-fluoro-6-methyl-3-pyridyl)-5-methyl-isoxazol-4-yl)methoxy)-N-isopropyl-pyridine-3-carboxamide]
- Efficacy (GABA) % (h-GABA-A α5β3γ2 [1]): 15%
- Fold increase h-GABA-A α5β3γ2 oocyte (h-GABA-A α5β3γ2 [1]): 1.15
- Ki (h-GABA-A α5β3γ2 [2]): 13.6 nM
